Assay results reported in paper PMC4810224, “Validation of the Target Protein of Insecticidal Dihydroagarofuran Sesquiterpene Polyesters” (Toxins, 2016).

Target: T1, subunit H of V-ATPase (recombinant subunit H) (Mythimna separata, UniProt A0A0D3L6K4)
T1 construct: full CDS in pET-15b, N-terminal His tag, E. coli BL21 (DE3), Ni-NTA twice, ~55 kDa, free subunit
T1 sequence (A0A0D3L6K4 1-474): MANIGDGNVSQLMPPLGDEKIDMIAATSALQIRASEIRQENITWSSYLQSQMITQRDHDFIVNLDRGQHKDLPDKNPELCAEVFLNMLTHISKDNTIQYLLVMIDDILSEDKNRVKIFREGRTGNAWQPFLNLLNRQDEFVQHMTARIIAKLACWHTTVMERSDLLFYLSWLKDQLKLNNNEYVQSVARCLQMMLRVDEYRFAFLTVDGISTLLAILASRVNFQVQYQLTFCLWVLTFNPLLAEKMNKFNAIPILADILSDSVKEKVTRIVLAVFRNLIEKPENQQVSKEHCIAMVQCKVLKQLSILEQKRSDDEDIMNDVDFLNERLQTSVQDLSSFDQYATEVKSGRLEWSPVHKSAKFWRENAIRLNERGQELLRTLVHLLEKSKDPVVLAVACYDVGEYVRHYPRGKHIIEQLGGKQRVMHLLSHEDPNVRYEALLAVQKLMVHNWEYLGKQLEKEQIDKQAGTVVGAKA
Test: microscale thermophoresis (Monolith NT.[…]), RED-NHS labelled protein
Type: binding

Row | SMILES | Kd [µM]
1 | CNc1ccccc1C(=O)O[C@@H]1[C@H]2[C@H](OC(=O)C(C)C)[C@@H](OC(=O)c3ccccc3)[C@]3(COC(=O)C(C)C)[C@@H](OC(C)=O)[C@@H](OC(C)=O)C[C@](C)(O)[C@@]13OC2(C)C [CV-6-N-methylisatoic] | 213
2 | CC(=O)O[C@H]1C[C@](C)(O)[C@]23OC(C)(C)[C@H]([C@H](OC(=O)C(C)C)[C@@H](OC(=O)c4ccccc4)[C@]2(COC(=O)C(C)C)[C@H]1OC(C)=O)[C@H]3OC(=O)CN [CV-6-aminoacetic acid ester] | 156
3 | CC(=O)O[C@H]1C[C@](C)(O)[C@]23OC(C)(C)[C@H]([C@H](OC(=O)C(C)C)[C@@H](OC(=O)c4ccccc4)[C@]2(COC(=O)C(C)C)[C@H]1OC(C)=O)[C@H]3OC(=O)C(C)N (stereo partly drawn) [CV-6-α-aminopropanoic acid ester] | 144
